Results taken from BigSolDB 2.1.

O.O=c1c(O)c(-c2ccc(O)cc2)oc2cc(O)cc(O)c12
solubility (mole fraction)
Conditions	283.15 K	288.15 K	293.15 K	298.15 K	303.15 K	308.15 K	313.15 K	318.15 K	318.25 K	323.15 K
in ethanol	0.00668	0.00812	0.00993	0.0121	0.0146	0.0178	0.0212	0.025	–	0.0295
in isopropanol	0.00356	0.00502	0.00676	0.00907	0.0126	0.0171	0.0222	–	0.0281	0.036
in n-butanol	0.00626	0.00772	0.00935	0.0113	0.0137	0.0164	0.0197	0.0236	–	0.028
in n-propanol	0.00621	0.00727	0.00861	0.0103	0.0121	0.014	0.0162	0.0188	–	0.0217
in sec-butanol	0.00599	0.00758	0.00926	0.0114	0.0138	0.0164	0.0196	0.0236	–	0.0285
